# Assays:
# [1] = biological target: T1, Tyrosine-protein kinase SYK (Homo sapiens, UniProt P43405); experiment: Inhibition of Syk (unknown origin) using 4 uM peptide assessed as product formation after 60 mins incubation by microfluidic mobility shift assay
# [2] = biological target: Tyrosine-protein kinase Lyn (Homo sapiens, UniProt P07948); experiment: Inhibition of Lyn (unknown origin)
# [3] = biological target: T2, Tyrosine-protein kinase ZAP-70 (Homo sapiens, UniProt P43403); experiment: Inhibition of ZAP70 (unknown origin)
# T2 sequence (P43403 whole entry): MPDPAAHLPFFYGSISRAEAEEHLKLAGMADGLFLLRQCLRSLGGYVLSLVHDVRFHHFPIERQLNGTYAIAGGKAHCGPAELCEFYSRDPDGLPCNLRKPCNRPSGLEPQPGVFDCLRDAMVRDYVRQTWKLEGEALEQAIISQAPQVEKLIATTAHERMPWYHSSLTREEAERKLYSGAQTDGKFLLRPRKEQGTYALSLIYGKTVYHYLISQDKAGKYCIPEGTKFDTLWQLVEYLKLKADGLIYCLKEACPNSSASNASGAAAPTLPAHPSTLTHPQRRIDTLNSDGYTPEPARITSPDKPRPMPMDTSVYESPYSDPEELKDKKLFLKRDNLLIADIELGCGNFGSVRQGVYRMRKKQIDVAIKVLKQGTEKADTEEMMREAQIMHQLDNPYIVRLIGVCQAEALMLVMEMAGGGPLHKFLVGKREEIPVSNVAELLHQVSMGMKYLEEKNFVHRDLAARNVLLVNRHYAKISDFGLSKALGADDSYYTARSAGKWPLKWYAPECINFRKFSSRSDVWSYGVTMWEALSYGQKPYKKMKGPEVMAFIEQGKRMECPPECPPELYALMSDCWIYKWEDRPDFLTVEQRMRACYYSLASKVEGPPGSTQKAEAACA
# [4] = biological target: Tyrosine-protein kinase JAK2 (Homo sapiens, UniProt O60674); experiment: Inhibition of JAK2 (unknown origin)
# [5] = biological target: T1, Tyrosine-protein kinase SYK; experiment: Inhibition of Syk in anti IgM-stimulated human Ramos cells assessed as BLNK phosphorylation by cellular assay
# [6] = biological target: T1, Tyrosine-protein kinase SYK; experiment: Inhibition of Syk in human whole blood assessed as inhibition of P-SLP76 in CD14+ monocytes by flow cytometry
# Bone marrow cell = experiment: Inhibition of IL3 dependent proliferation in […] mouse bone marrow cells using [3H]thymidine by liquid scintillation counting; type: functional, cell-based
# [7] = (§1) Half life in rat liver microsomes; type: ADME; details: liver microsomes
# Liver microsome = experiment: as §1; type: ADME; details: microsomes
# [8] = Apparent permeability from apical to basolateral side in human Caco2 cells; type: ADME, cell-based; details: Caco-2
# [9] = Apparent permeability from basolateral to apical side in human Caco2 cells; type: ADME, cell-based; details: Caco-2
# [10] = Half life in rat liver S9 fraction assessed as conversion into 5-(1H-indol-7-ylamino)-7-((1R,2S)-2-aminocyclohexylamino)pyrido[4,3-d]pyrimidine-2,4(1H,3H)-dione in presence of NADPH; type: ADME, subcellular
# Liver = experiment: Half life in rat liver S9 fraction assessed as conversion into 5-(1H-indol-7-ylamino)-7-((1R,2S)-2-aminocyclohexylamino)pyrido[4,3-d]pyrimidine-2,4(1H,3H)-dione; type: ADME, subcellular
# [11] = Half life in dog liver S9 fraction; type: ADME, subcellular, Canis lupus familiaris
# [12] = Drug metabolism in pig liver microsomes assessed as conversion into 5-(1H-indol-7-ylamino)-7-((1R,2S)-2-aminocyclohexylamino)pyrido[4,3-d]pyrimidine-2,4(1H,3H)-dione by NMR; type: ADME, Sus scrofa
# [13] = Clearance in Sprague-Dawley rat at 1 mg/kg, iv and 3 mg/kg, po; type: ADME, organism-based; details: in vivo
# [14] = Volume of distribution at steady state in Sprague-Dawley rat at 1 mg/kg, iv and 3 mg/kg, po; type: ADME, organism-based; details: in vivo, read-out: Vdss
# [15] = Terminal half life Sprague-Dawley rat at 1 mg/kg, iv and 3 mg/kg, po; type: ADME, organism-based; details: in vivo, read-out: beta t1/2 (converted)
# Rattus norvegicus [16] = experiment: Dose normalized AUC in Sprague-Dawley rat at 1 mg/kg, iv; type: ADME, organism-based; set-up: dose 1 mg/kg, route intravenous; details: in vivo
# Rattus norvegicus [17] = experiment: Dose normalized AUC in Sprague-Dawley rat at 3 mg/kg, po; type: ADME, organism-based; set-up: dose 3 mg/kg, route oral; details: in vivo
# Rattus norvegicus [18] = experiment: Cmax/dose in Sprague-Dawley rat at 1 mg/kg, iv and 3 mg/kg, po; type: ADME, organism-based; details: in vivo
# [19] = Plasma bioavailability in Sprague-Dawley rat at 1 mg/kg, iv and 3 mg/kg, po; type: ADME, organism-based
# [20] = biological target: Voltage-gated inwardly rectifying potassium channel KCNH2 (Homo sapiens, UniProt Q12809); experiment: Inhibition of human ERG by Q-patch assay
# [21] = biological target: T3, Receptor-type tyrosine-protein kinase FLT3 (Homo sapiens, UniProt P36888); experiment: Inhibition of Flt3 (unknown origin)
# T3 sequence (P36888 whole entry): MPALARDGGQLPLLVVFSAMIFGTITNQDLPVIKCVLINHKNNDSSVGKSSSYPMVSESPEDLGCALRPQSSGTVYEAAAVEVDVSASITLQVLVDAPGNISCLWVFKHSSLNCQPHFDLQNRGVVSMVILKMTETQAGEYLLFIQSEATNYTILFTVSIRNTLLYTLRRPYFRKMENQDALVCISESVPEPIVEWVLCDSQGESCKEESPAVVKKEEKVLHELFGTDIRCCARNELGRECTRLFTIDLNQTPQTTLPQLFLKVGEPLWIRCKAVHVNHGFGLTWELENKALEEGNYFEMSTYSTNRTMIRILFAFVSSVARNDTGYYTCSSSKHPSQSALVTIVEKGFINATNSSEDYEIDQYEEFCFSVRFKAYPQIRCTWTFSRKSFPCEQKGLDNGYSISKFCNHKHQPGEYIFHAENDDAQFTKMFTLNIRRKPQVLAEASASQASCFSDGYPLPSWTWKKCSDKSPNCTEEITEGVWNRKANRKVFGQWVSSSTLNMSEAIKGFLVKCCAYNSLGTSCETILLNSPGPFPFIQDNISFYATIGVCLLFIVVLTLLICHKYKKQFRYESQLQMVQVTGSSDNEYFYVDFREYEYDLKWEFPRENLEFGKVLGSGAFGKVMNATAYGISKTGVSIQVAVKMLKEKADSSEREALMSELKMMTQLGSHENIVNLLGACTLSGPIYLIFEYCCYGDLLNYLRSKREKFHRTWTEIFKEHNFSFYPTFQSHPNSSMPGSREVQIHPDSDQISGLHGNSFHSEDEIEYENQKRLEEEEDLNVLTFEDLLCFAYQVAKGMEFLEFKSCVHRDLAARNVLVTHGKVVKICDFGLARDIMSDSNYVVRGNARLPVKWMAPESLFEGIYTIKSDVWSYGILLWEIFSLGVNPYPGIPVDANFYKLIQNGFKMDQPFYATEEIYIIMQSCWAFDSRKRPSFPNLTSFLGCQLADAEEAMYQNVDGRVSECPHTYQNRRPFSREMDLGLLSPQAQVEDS
# [22] = Clearance in Wistar rat at 3 mg/kg, iv and 10 mg/kg, po; type: ADME, organism-based; details: in vivo
# [23] = Volume of distribution at steady state in Wistar rat at 3 mg/kg, iv and 10 mg/kg, po; type: ADME, organism-based; details: in vivo, read-out: Vdss
# [24] = Terminal half life Wistar rat at 3 mg/kg, iv and 10 mg/kg, po; type: ADME, organism-based; details: in vivo, read-out: beta t1/2 (converted)
# Rattus norvegicus [25] = experiment: Dose normalized AUC in Wistar rat at 3 mg/kg, iv; type: ADME, organism-based; set-up: dose 3 mg/kg, route intravenous; details: in vivo
# Rattus norvegicus [26] = experiment: Dose normalized AUC in Wistar rat at 10 mg/kg, po; type: ADME, organism-based; set-up: dose 10 mg/kg, route oral; details: in vivo
# Rattus norvegicus [27] = experiment: Cmax/dose in Wistar rat at 3 mg/kg, iv and 10 mg/kg, po; type: ADME, organism-based; details: in vivo
# [28] = Plasma bioavailability in Wistar rat at 3 mg/kg, iv and 10 mg/kg, po; type: ADME, organism-based
# Sequence of Voltage-gated inwardly rectifying potassium channel KCNH2 (Q12809 whole entry): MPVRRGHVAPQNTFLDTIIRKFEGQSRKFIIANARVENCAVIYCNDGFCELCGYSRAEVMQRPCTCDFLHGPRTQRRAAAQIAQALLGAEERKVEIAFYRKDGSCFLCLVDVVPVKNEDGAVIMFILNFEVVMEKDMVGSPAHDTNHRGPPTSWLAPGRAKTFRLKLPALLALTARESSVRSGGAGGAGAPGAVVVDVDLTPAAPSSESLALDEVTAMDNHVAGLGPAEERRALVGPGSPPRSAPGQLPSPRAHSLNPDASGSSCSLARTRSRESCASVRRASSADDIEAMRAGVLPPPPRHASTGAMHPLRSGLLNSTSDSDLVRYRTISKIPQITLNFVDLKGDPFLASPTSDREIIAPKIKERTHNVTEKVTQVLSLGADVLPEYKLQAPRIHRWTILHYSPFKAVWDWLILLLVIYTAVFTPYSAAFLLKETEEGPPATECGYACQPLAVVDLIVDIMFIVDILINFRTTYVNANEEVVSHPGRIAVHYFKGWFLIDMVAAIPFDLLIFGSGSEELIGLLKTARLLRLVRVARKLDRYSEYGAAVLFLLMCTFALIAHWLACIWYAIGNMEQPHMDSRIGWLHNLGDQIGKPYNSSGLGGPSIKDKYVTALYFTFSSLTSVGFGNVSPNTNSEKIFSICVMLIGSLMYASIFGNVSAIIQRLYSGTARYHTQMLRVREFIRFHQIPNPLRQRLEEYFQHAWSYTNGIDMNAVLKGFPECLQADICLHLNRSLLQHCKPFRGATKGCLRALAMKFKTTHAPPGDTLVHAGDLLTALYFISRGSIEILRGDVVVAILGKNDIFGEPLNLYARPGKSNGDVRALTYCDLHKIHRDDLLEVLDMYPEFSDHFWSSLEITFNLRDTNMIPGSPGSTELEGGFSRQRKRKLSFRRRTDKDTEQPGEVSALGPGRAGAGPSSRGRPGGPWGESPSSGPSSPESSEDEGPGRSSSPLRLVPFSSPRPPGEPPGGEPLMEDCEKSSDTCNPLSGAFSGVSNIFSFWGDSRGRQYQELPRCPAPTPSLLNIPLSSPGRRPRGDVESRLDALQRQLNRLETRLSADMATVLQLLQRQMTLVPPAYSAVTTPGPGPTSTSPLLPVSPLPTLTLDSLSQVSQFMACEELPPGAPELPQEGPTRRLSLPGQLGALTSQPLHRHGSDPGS
# Sequence of Tyrosine-protein kinase Lyn (P07948 whole entry): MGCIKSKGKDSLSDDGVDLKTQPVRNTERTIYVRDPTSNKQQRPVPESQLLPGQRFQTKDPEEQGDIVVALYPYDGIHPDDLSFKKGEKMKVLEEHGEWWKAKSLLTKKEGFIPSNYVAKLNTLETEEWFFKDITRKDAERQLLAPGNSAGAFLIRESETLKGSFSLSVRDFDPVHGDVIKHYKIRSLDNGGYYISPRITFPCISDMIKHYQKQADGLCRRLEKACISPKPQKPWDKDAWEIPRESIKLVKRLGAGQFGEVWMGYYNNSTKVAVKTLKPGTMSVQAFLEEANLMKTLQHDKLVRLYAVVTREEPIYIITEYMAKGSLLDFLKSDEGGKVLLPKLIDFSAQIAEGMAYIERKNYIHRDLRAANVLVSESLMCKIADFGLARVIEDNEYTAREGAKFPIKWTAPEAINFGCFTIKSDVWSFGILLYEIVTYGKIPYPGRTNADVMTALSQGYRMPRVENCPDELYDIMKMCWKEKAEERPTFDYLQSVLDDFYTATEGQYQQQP
# Sequence of Tyrosine-protein kinase JAK2 (O60674 whole entry): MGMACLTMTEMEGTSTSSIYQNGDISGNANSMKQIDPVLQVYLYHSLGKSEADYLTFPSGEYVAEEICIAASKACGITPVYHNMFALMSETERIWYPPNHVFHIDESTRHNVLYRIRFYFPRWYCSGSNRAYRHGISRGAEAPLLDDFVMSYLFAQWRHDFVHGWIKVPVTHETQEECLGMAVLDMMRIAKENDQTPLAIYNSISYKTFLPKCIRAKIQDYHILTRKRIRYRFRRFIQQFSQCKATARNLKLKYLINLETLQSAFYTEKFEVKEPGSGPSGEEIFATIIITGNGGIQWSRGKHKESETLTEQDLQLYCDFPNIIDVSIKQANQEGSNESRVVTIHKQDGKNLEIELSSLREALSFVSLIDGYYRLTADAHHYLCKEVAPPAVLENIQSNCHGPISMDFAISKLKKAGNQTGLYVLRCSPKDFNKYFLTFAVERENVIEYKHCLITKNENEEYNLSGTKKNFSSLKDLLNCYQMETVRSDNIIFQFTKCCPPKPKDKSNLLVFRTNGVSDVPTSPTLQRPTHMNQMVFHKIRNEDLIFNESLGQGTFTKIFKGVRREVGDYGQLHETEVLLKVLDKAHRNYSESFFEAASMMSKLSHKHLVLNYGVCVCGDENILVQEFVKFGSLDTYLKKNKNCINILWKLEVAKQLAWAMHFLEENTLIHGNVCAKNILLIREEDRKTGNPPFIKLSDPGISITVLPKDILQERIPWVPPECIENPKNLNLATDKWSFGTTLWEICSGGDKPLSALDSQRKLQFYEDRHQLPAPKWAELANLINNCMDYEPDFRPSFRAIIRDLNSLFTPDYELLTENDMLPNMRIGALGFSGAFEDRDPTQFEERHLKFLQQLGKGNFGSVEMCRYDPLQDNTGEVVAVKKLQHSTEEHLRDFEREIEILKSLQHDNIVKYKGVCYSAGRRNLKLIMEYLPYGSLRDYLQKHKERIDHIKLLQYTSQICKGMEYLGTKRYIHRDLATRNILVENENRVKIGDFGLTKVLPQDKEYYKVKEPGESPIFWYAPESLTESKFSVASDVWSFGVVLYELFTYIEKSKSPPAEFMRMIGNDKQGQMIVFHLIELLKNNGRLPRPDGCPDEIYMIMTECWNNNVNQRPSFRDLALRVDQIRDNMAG
IC50 [1] [nM],IC50 [2] [nM],IC50 [3] [nM],IC50 [4] [nM],IC50 [5] [nM],IC50 [6] [nM],half-life [7] [min],SMILES,IC50 (Bone marrow cell) [nM],IC50 [20] [nM],other results
165,315,3000,950,378,1990,,O=c1[nH]cnc2cc(N[C@@H]3CCCNC3)nc(Nc3cccc4cc[nH]c34)c12,,,
3,550,81,300,95,430,27,Cc1c[nH]c2c(Nc3nc(N[C@@H]4CCCC[C@@H]4N)cc4cc[nH]c(=O)c34)cccc12,4940,,
20,230,375,290,60,232,14,N[C@H]1COCC[C@H]1Nc1cc2nc[nH]c(=O)c2c(Nc2cccc3cc[nH]c23)n1,7470,,
,,,,,,,N[C@H]1CCCC[C@H]1Nc1cc2nc[nH]c(=O)c2c(Nc2cccc3cc[nH]c23)n1,,,t1/2 (Liver microsome): 22 min; Papp A→B [8]: 9.5 ×10⁻⁶ cm/s; Papp B→A [9]: 15.2 ×10⁻⁶ cm/s; t1/2 [10]: < 5 min; t1/2 (Liver): < 5 min; half-life [11]: > 120 min; Drug metabolism [12]: metabolite_detected; clearance [13]: 69 mL/min/kg; Vd [14]: 31 L/kg; half-life [15]: 660 min; AUC/dose (Rattus norvegicus [16]): 629 nM·h; AUC/dose (Rattus norvegicus [17]): 9 nM·h; Cmax/dose (Rattus norvegicus [18]): 1 nM; bioavailability [19]: 1%
22,1200,340,680,55,433,50,N[C@H]1COCC[C@H]1Nc1cc2cc[nH]c(=O)c2c(Nc2cccc3cc[nH]c23)n1,3510,24900,IC50 [21]: 20 nM; clearance [22]: 142 mL/min/kg; Vd [23]: 18 L/kg; half-life [24]: 126 min; AUC/dose (Rattus norvegicus [25]): 299 nM·h; AUC/dose (Rattus norvegicus [26]): 19 nM·h; Cmax/dose (Rattus norvegicus [27]): 2 nM; bioavailability [28]: 7%
2,44,33,190,47,805,25,Cc1c[nH]c2c(Nc3nc(N[C@@H]4CCCC[C@@H]4N)cc4nc[nH]c(=O)c34)cccc12,3800,> 30000,Papp A→B [8]: 9.5 ×10⁻⁶ cm/s; Papp B→A [9]: 9.6 ×10⁻⁶ cm/s; clearance [13]: 39 mL/min/kg; Vd [14]: 19 L/kg; half-life [15]: 780 min; AUC/dose (Rattus norvegicus [16]): 1109 nM·h; AUC/dose (Rattus norvegicus [17]): 40 nM·h; Cmax/dose (Rattus norvegicus [18]): 4 nM; bioavailability [19]: 4%
34,1000,815,1810,320,,19,N[C@H]1CCCC[C@H]1Nc1cc2nc[nH]c(=O)c2c(Nc2cccc3c(Cl)c[nH]c23)n1,6660,20000,
1900,,,,,,,N[C@H]1CCCC[C@H]1Nc1cc2[nH]c(=O)[nH]c(=O)c2c(Nc2cccc3cc[nH]c23)n1,,,
1,32,14,83,35,322,17,N[C@H]1CCCC[C@H]1Nc1cc2nc[nH]c(=O)c2c(Nc2cccc3[nH]ccc23)n1,4140,,

# — ChEMBL document CHEMBL3259804, “Syk inhibitors with high potency in presence of blood” (Bioorg Med Chem Lett, 2014)
